Experimental data: article PMC11921344, “Antimicrobial peptide DiPGLa-H exhibits the most outstanding anti-infective activity among the PGLa variants based on a systematic comparison” (Applied and Environmental Microbiology, 2025)
Read-outs that look alike come from different tables or passages of the source. Where no end group is shown, it is not given here.

Experiments:
P. aeruginosa ATCC27853 = assay type: cell-based, Pseudomonas aeruginosa
Experimental: (§1) The antibacterial activity was evaluated using a standard MIC and MBC assay according to the National Committee for Clinical Laboratory Standards (NCCLS). MIC, MBC assay, and time-kill curves for the optimal peptide are provided in the Supplementary Materials.
(§2) Antimicrobial Activity Assays. The antibacterial activity of the peptides was determined using a method designed from the National Committee for Clinical Laboratory Standards (NCCLS) in the United States. All the strains used in the experiment are preserved in the laboratory. Briefly, log phase bacterial cells were diluted in MHB to a final concentration of 0.5-1x10^5 CFU/mL. Subsequently, 50μL of different concentrations of polypeptides were incubated with 50 μL of bacterial solution in sterile 96-well plates. In the minimum inhibitory concentration (MIC) assay, the plate was incubated at 37°C for 24 h, and the minimum inhibitory concentration (MIC) was determined by the absorbance at 492 nm of the microplate reader, and the minimum inhibitory concentration (MIC) inhibited 95% of bacteria grow. Determination of minimum bactericidal concentration: the plate was incubated at 37°C for 4 hours, 50 μL of the mixture was taken out of each well, diluted with an appropriate amount of PBS, smeared on the agar plate, and cultured overnight. Colonies were counted and the initial CFU/well was retrospectively calculated the following day. The lowest concentration of peptide that kills 99.9% of bacterial cells is the minimum bactericidal concentration (µM), Each test was replicated at least 3 times.

E. coli K88 [1] = assay: ROS generation (DCFH-DA); assay type: cell-based, Escherichia coli; conditions: 8 µM DiPGLa-H, 1 h 37°C, DCFH-DA 10 µM
Experimental: (§3) 2′,7′-Dichlorofluorescin diacetate (DCFH-DA) was used to determine the intracellular production of ROS as previously described. S. aureus Mu50 and E. coli K88 cells were diluted until OD600 = 0.4 and incubated in different concentrations of peptide at 37°C for 1 h. Next, the mixed solution was incubated with 10 µM DCFH-DA at 37°C for 1 h. The fluorescence (excitation wavelength = 488 nm, emission wavelength = 525 nm) was monitored with an Infinite 200 pro fluorescence spectrophotometer (Tecan, China). Each test was measured in triplicate and tested twice.

E. coli K88 [2] = assay: Heat, pH and salt sensitivity assay (MIC); assay type: cell-based, Escherichia coli; conditions: salts of Table S2
Experimental: To assess the stability of the peptides in physiological conditions, the peptides were incubated with E. coli K88 and S. aureus Mu50 in the presence of salts (150 mM NaCl, 4.5 mM KCl, 6 µM NH4Cl, 8 µM ZnCl2, 1 mM MgCl2, 4 µM FeCl3, and 2.5 µM CaCl2) in accordance with a previously reported protocol. To determine the thermal stability of the peptides, the peptides were pretreated at 100°C for 30 min, 60 min, and 90 min and cooled on ice for 10 min. The effect of acid and base on the antimicrobial activity was measured by treating the peptides for 2 h at pH of 2, 4, 10, and 12 in 10 mM sodium phosphate buffer adjusted with HCl or NaOH.

[3] = test system: E. coli K88 outer membrane; assay: Outer membrane integrity assay (NPN uptake); assay type: cell-based, Escherichia coli
Experimental: (§4) The outer and inner membrane integrity of bacterial cells treated with peptides was assessed using NPN and PI staining, respectively. Full details are provided in the Supplementary Materials.
Membrane permeabilization. Outer membrane integrity assay. The fluorescent probe NPN (Sigma-Aldrich, catalog no. 104043, ≥98%) was used to assess the outer membrane integrity of DiPGLa-H or mucin-treated E. coli K88. Briefly, log-medium E. coli K88 cells (OD600 = 0.2) were incubated with NPN (10 μM) in 5 mM HEPES buffer (pH 7.4, containing 5 mM glucose) for 30 min, and background fluorescence was recorded for subtraction. (excitation λ = 350 nm, emission λ = 420 nm) using a microplate reader (Varioskan Flash; Thermo, America). Subsequently, 100 μL of cell suspension was mixed with an equal volume of peptide solutions ranging in concentration from 4 to 64 μM in a sterile 96-well black plate. Fluorescence was recorded over time until no further increase in fluorescence was detected. Each test was performed independently, in duplicate, with three biological replicates, and results were converted to percent NPN uptake using the equation. NPN uptake (%) = (Fobs – Fbuffer)/ (Fpositive – Fbuffer) ×100%.
where Fobs is the observed fluorescence at a given peptide concentration, Fbuffer is the fluorescence of the buffer, and Fpositive is the fluorescence of NPN with microbial cells upon addition of 10 μg/mL polymyxin B (Sigma), which was used as a positive control because of its strong outer membrane-permeabilizing property. Untreated cell suspension served as the negative control.

[4] = test system: E. coli K88 inner membrane; assay: Inner membrane integrity assay (PI); assay type: cell-based, Escherichia coli; conditions: 4 µM peptide, 30 min
Experimental: as §4
Inner membrane integrity assay. E. coli K88 cells were washed and resuspended in 0.01 mol l−1 of PBS (pH 7.4) to obtain an OD600 of 0.5, followed by the addition of 10 nmol l−1 of PI (Thermo Fisher Scientific, catalogue no. P1304MP) in the presence of […]. After incubation for 30 min, fluorescence was measured with the excitation wavelength at 535 nm and emission wavelength at 615 nm.

S. aureus Mu50 [5] = assay: ROS generation (DCFH-DA); assay type: cell-based, Staphylococcus aureus MRSA; conditions: 8 µM DiPGLa-H, 1 h 37°C, DCFH-DA 10 µM
Experimental: as §3

S. aureus ATCC29213 = assay type: cell-based, Staphylococcus aureus
Experimental: as §1, §2

S. aureus Mu50 [6] = assay type: cell-based, Staphylococcus aureus MRSA
Experimental: as §1, §2

KIAKVALKALKIAKVALKAL-NH2 (C-terminus assumed) [DiPGLa-H]
MBC P. aeruginosa ATCC27853 (P. aeruginosa ATCC27853; ATCC27853, 4 h): 2 µM | MIC P. aeruginosa ATCC27853 (P. aeruginosa ATCC27853; ATCC27853, 24 h): 2 µM | elevation of ROS production vs untreated (E. coli K88 [1]): 11.3 fold | elevation in MIC values by cationic ions, E. coli K88 (E. coli K88 [2]): 2–8 times | outer membrane permeability (NPN uptake) ([3]; 64 µM peptide, relative to 10 µg/mL polymyxin B = 100%): 184.4% | membrane permeability ([3]; 1× MIC): approximately 80% | inner membrane damage (PI) [4]: 267% | elevation of ROS production vs untreated (S. aureus Mu50 [5]): 4.6 fold | MBC S. aureus ATCC29213 (S. aureus ATCC29213; ATCC29213, 4 h): 4 µM | MIC S. aureus ATCC29213 (S. aureus ATCC29213; ATCC29213, 24 h): 4 µM | MBC S. aureus Mu50 (S. aureus Mu50 [6]; Mu50, 4 h): 16 µM | MIC S. aureus Mu50 (S. aureus Mu50 [6]; Mu50, 24 h): 8 µM | MIC S. aureus Mu50 (S. aureus Mu50 [6]; lowest concentration inhibiting 95% of growth, MHB, 0.5-1x10^5 CFU/mL, 37°C 24 h, absorbance 492 nm, three independent experiments): 8 µM
